This test has as its target 5-hydroxytryptamine receptor 3A (Rattus norvegicus) (UniProt P35563). As to the kind of experiment: The compound was tested for binding affinity against 5-hydroxytryptamine 3 receptor.

Our source for the Ki values is ChEMBL document CHEMBL1132360, “N-Substituted (2,3-dihydro-1,4-benzodioxin-2-yl)methylamine derivatives as D(2) antagonists/5-HT(1A) partial agonists with potential as atypical antipsychotic agents” (J Med Chem, 1999).

5-hydroxytryptamine receptor 3A (Rattus norvegicus), sequence (P35563 whole entry, looked up): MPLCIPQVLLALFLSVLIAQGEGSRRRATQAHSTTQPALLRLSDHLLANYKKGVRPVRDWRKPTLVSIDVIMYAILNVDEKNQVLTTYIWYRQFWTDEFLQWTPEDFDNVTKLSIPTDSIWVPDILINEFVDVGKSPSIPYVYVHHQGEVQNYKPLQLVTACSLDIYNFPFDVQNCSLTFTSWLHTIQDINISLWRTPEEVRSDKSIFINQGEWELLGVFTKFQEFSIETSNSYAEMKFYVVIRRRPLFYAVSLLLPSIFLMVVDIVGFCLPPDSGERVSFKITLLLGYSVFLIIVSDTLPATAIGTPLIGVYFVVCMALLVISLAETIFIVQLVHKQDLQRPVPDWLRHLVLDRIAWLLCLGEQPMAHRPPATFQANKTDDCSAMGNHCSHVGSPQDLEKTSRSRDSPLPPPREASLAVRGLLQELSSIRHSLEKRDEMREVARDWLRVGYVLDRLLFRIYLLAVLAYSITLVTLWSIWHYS

The term Ki denotes the equilibrium dissociation constant of an inhibitor or competing ligand from its target. `COc1ccccc1N1CCC(CNCC2COc3ccc(Cl)cc3O2)CC1` (stereo unspecified): the Ki was > 1000 nM.
